Measurements published in patent publication US20260165948A1, “A COMPOSITION FOR SKIN REGENERATION COMPRISING A CULTURE MEDIUM OF TONSIL-DERIVED MESENCHYMAL STEM CELLS, THE ANTIOXIDANT EFFECT OF WHICH IS ENHANCED BY N-ACETYLCYSTEINE (NAC)” (priority 2023, published 2026).

Columns and labels:
[1] = test system: tonsil-derived human MSCs; assay: Determination of NAC pretreatment concentration (cell viability); details: NAC 10 mM, pretreatment for 24 hours; FIG. 1
Experimental: In order to determine the concentration of NAC for pretreatment of tonsil-derived human MSCs, the tonsil-derived human MSCs were pretreated with NAC prepared in Example 1 at concentrations of 2, 4, 6, 8, 10, 15, and 100 mM for 24 hours, and then cell viability was evaluated.

[2] = test system: tonsil-derived human MSCs (hMSC-T, passage 6); assay: Cell viability upon NAC treatment (WST, absorbance at 450 nm) with PYBR challenge; format: cell-based; details: NAC pretreatment 10 mM and 20 mM for 24 hours, then PYBR 5, 10, 20 μg/mL for 24 hours; FIG. 3
Experimental: In order to evaluate cell viability upon NAC treatment, tonsil-derived human MSCs (hMSC-T, passage 6) were seeded in a culture medium at a density of 1×10^3 cells/well. On the following day, NAC was treated at concentrations of 10 mM and 20 mM for 24 hours. Thereafter, the cells were washed with PBS and the medium was replaced, followed by treatment with PYBR at concentrations of 5, 10, and 20 μg/mL. After 24 hours, the cells were washed three times with PBS and transferred to fresh medium (100 μL) containing 10 μL of WST solution, and incubated at 37° C. for 2 hours in the dark. Absorbance at 450 nm was then measured to evaluate cell viability (FIG. 2). A group not treated with NAC was used as a positive control.

[3] = test system: tonsil-derived human MSCs (hMSC-T, passage 6); assay: Antioxidant activity (ROS assay) with PYBR challenge; format: cell-based; details: NAC pretreatment 10 mM and 20 mM for 24 hours, then PYBR 5, 10, 20 μg/mL for 24 hours; FIG. 5
Experimental: In order to evaluate antioxidant activity upon NAC treatment, tonsil-derived human MSCs (hMSC-T, passage 6) were seeded in a culture medium at a density of 1×10^4 cells/well. On the following day, NAC was treated at concentrations of 10 mM and 20 mM for 24 hours. Thereafter, the cells were washed with PBS and the medium was replaced, followed by treatment with PYBR at concentrations of 5, 10, and 20 μg/mL. After 24 hours, the cells were washed three times with PBS and incubated in 100 μL of ROS working solution at 37° C. for 30 minutes in the dark. Absorbance was then measured at 488/525 nm (FIG. 4). A group not treated with NAC was used as a positive control.

CC(=O)NC(CS)C(=O)O (stereo not drawn) [NAC, 2-acetamido-3-sulfanylpropanoic acid]
cytotoxicity (cell viability) [1]: no cytotoxicity was observed
cell viability after PYBR treatment [2]: significantly restored cell viability
ROS levels after PYBR treatment [3]: significantly reduced ROS levels
